In ChEMBL document CHEMBL3885881, “DrugMatrix”:

Species on record: Rattus norvegicus
Assay: DrugMatrix - Regimen: Daily Repeat
Type: toxicity, organism-based, Sprague-Dawley
Parameters: regimen Daily Repeat, gender Male, age 6-8 weeks
Details: in vivo, po, route oral GAVAGE, vehicle 100 % SALINE; for ABSOLUTE BASOPHIL / ABSOLUTE EOSINOPHIL / ABSOLUTE LYMPHOCYTE / ABSOLUTE MONOCYTE / BASOPHIL / EOSINOPHIL / ERYTHROCYTE COUNT / HEMATOCRIT / HEMOGLOBIN / LEUKOCYTE COUNT / LYMPHOCYTE / MEAN CORPUSCULAR HEMOGLOBIN / MEAN CORPUSCULAR HEMOGLOBIN CONCENTRATION / MEAN CORPUSCULAR VOLUME / MONOCYTE / NEUTROPHIL / PLATELET COUNT: tissue Blood; for ALANINE AMINOTRANSFERASE / ALBUMIN / ALKALINE PHOSPHATASE / ASPARTATE AMINOTRANSFERASE / BLOOD UREA NITROGEN / CARBON DIOXIDE / CHLORIDE / CHOLESTEROL / CREATINE PHOSPHOKINASE / CREATININE / GLUCOSE / LACTATE DEHYDROGENASE / LIPASE / PHOSPHORUS / POTASSIUM / SODIUM / TOTAL BILIRUBIN / TOTAL PROTEIN / URIC ACID: tissue Plasma
[1] = 0 mg/kg, 72 h, dose level Control, time 3 day
[2] = 0 mg/kg, 120 h, dose level Control, time 5 day
[3] = 0 mg/kg, […], dose level Control, time 14 day
[4] = […], 72 h, dose 7.5 mg/Kg, dose level High, time 3 day
[5] = […], 120 h, dose 7.5 mg/Kg, dose level High, time 5 day

## Nc1ncnc2c1ncn2[C@@H]1O[C@H](CO)[C@@H](O)[C@H]1F [2'-BETA-FLUORO-2',3'-DEOXYADENOSINE]
[1]
  ABSOLUTE BASOPHIL: 140 cells/µL
  ABSOLUTE EOSINOPHIL: 43.3 cells/µL
  ABSOLUTE LYMPHOCYTE: 7570 cells/µL
  ABSOLUTE MONOCYTE: 160 cells/µL
  BASOPHIL: 1.47%
  EOSINOPHIL: 0.47%
  ERYTHROCYTE COUNT: 6.68 x10E6/uL
  HEMATOCRIT: 44.33%
  HEMOGLOBIN: 14.43 G/DL
  LEUKOCYTE COUNT: 9.33 x10E3/uL
  LYMPHOCYTE: 81.23%
  MEAN CORPUSCULAR HEMOGLOBIN: 21.67 pg
  MEAN CORPUSCULAR HEMOGLOBIN CONCENTRATION: 32.6 G/DL
  MEAN CORPUSCULAR VOLUME: 66.43 fL
  MONOCYTE: 1.73%
  NEUTROPHIL: 14.7%
  PLATELET COUNT: 1341.67 x10E3/uL
  ALANINE AMINOTRANSFERASE: 31 u/L
  ALBUMIN: 4.03 G/DL
  ALKALINE PHOSPHATASE: 447 u/L
  ASPARTATE AMINOTRANSFERASE: 61.33 u/L
  BLOOD UREA NITROGEN: 15.67 mg/dL
  CARBON DIOXIDE: 43 mmol/L
  CHLORIDE: 103.33 MEQ/L
  CHOLESTEROL: 83.67 mg/dL
  CREATINE PHOSPHOKINASE: 174.33 u/L
  CREATININE: 0.4 mg/dL
  GLUCOSE: 173 mg/dL
  LACTATE DEHYDROGENASE: 87.67 u/L
  LIPASE: 17.33 u/L
  PHOSPHORUS: 10.27 mg/dL
  POTASSIUM: 6.47 MEQ/L
  SODIUM: 143.67 MEQ/L
  TOTAL BILIRUBIN: 0.37 mg/dL
  TOTAL PROTEIN: 6.63 G/DL
  URIC ACID: 1.03 mg/dL
[2]
  ABSOLUTE BASOPHIL: 53.3 cells/µL
  ABSOLUTE EOSINOPHIL: 210 cells/µL
  ABSOLUTE LYMPHOCYTE: 8220 cells/µL
  ABSOLUTE MONOCYTE: 200 cells/µL
  BASOPHIL: 0.53%
  EOSINOPHIL: 2.1%
  ERYTHROCYTE COUNT: 7 x10E6/uL
  HEMATOCRIT: 44%
  HEMOGLOBIN: 14.53 G/DL
  LEUKOCYTE COUNT: 10.44 x10E3/uL
  LYMPHOCYTE: 78.07%
  MEAN CORPUSCULAR HEMOGLOBIN: 20.77 pg
  MEAN CORPUSCULAR HEMOGLOBIN CONCENTRATION: 33 G/DL
  MEAN CORPUSCULAR VOLUME: 62.87 fL
  MONOCYTE: 1.87%
  NEUTROPHIL: 16.8%
  PLATELET COUNT: 1104.33 x10E3/uL
  ALANINE AMINOTRANSFERASE: 31.67 u/L
  ALBUMIN: 3.93 G/DL
  ALKALINE PHOSPHATASE: 394.67 u/L
  ASPARTATE AMINOTRANSFERASE: 65.67 u/L
  BLOOD UREA NITROGEN: 15.67 mg/dL
  CARBON DIOXIDE: 40.67 mmol/L
  CHLORIDE: 104.33 MEQ/L
  CHOLESTEROL: 66.33 mg/dL
  CREATINE PHOSPHOKINASE: 346.67 u/L
  CREATININE: 0.33 mg/dL
  GLUCOSE: 176.67 mg/dL
  LACTATE DEHYDROGENASE: 109 u/L
  LIPASE: 14.33 u/L
  PHOSPHORUS: 11.17 mg/dL
  POTASSIUM: 6.53 MEQ/L
  SODIUM: 146 MEQ/L
  TOTAL BILIRUBIN: 0.37 mg/dL
  URIC ACID: 0.97 mg/dL
[3]
  ABSOLUTE BASOPHIL: 93.3 cells/µL
  ABSOLUTE EOSINOPHIL: 80 cells/µL
  ABSOLUTE LYMPHOCYTE: 6890 cells/µL
  ABSOLUTE MONOCYTE: 170 cells/µL
  BASOPHIL: 1%
  EOSINOPHIL: 0.83%
  ERYTHROCYTE COUNT: 7.03 x10E6/uL
  HEMATOCRIT: 43.4%
  HEMOGLOBIN: 14.83 G/DL
  LEUKOCYTE COUNT: 8.94 x10E3/uL
  LYMPHOCYTE: 77.93%
  MEAN CORPUSCULAR HEMOGLOBIN: 21.1 pg
  MEAN CORPUSCULAR HEMOGLOBIN CONCENTRATION: 34.17 G/DL
  MEAN CORPUSCULAR VOLUME: 61.77 fL
  MONOCYTE: 1.33%
  NEUTROPHIL: 18%
  PLATELET COUNT: 1097.33 x10E3/uL
  ALANINE AMINOTRANSFERASE: 32 u/L
  ALBUMIN: 3.83 G/DL
  ALKALINE PHOSPHATASE: 334.67 u/L
  ASPARTATE AMINOTRANSFERASE: 69.33 u/L
  BLOOD UREA NITROGEN: 16 mg/dL
  CARBON DIOXIDE: 40 mmol/L
  CHLORIDE: 105.67 MEQ/L
  CHOLESTEROL: 70.33 mg/dL
  CREATINE PHOSPHOKINASE: 144.67 u/L
  CREATININE: 0.3 mg/dL
  GLUCOSE: 177.67 mg/dL
  LACTATE DEHYDROGENASE: 97.67 u/L
  LIPASE: 16.33 u/L
  PHOSPHORUS: 10.83 mg/dL
  POTASSIUM: 5.77 MEQ/L
  SODIUM: 143.33 MEQ/L
  TOTAL BILIRUBIN: 0.33 mg/dL
  TOTAL PROTEIN: 6.37 G/DL
  URIC ACID: 0.17 mg/dL
[4]
  ABSOLUTE BASOPHIL: 280 cells/µL
  ABSOLUTE EOSINOPHIL: 220 cells/µL
  ABSOLUTE LYMPHOCYTE: 9970 cells/µL
  ABSOLUTE MONOCYTE: 370 cells/µL
  BASOPHIL: 2.3%
  EOSINOPHIL: 2.07%
  ERYTHROCYTE COUNT: 6.92 x10E6/uL
  HEMATOCRIT: 45.73%
  HEMOGLOBIN: 14.7 G/DL
  LEUKOCYTE COUNT: 12.17 x10E3/uL
  LYMPHOCYTE: 81.03%
  MEAN CORPUSCULAR HEMOGLOBIN: 21.23 pg
  MEAN CORPUSCULAR HEMOGLOBIN CONCENTRATION: 32.1 G/DL
  MEAN CORPUSCULAR VOLUME: 66.07 fL
  MONOCYTE: 3.03%
  NEUTROPHIL: 11.03%
  PLATELET COUNT: 1214.67 x10E3/uL
  ALANINE AMINOTRANSFERASE: 43.33 u/L
  ALBUMIN: 3.93 G/DL
  ALKALINE PHOSPHATASE: 434.67 u/L
  ASPARTATE AMINOTRANSFERASE: 98.33 u/L
  BLOOD UREA NITROGEN: 16 mg/dL
  CARBON DIOXIDE: 43.33 mmol/L
  CHLORIDE: 103 MEQ/L
  CHOLESTEROL: 76.33 mg/dL
  CREATINE PHOSPHOKINASE: 214.67 u/L
  CREATININE: 0.43 mg/dL
  GLUCOSE: 167.67 mg/dL
  LACTATE DEHYDROGENASE: 99.33 u/L
  LIPASE: 12 u/L
  PHOSPHORUS: 11 mg/dL
  POTASSIUM: 7.1 MEQ/L
  SODIUM: 144 MEQ/L
  TOTAL BILIRUBIN: 0.33 mg/dL
  TOTAL PROTEIN: 6.37 G/DL
  URIC ACID: 0.97 mg/dL
[5]
  ABSOLUTE BASOPHIL: 86.7 cells/µL
  ABSOLUTE EOSINOPHIL: 120 cells/µL
  ABSOLUTE LYMPHOCYTE: 11100 cells/µL
  ABSOLUTE MONOCYTE: 270 cells/µL
  BASOPHIL: 0.63%
  EOSINOPHIL: 0.9%
  ERYTHROCYTE COUNT: 7.18 x10E6/uL
  HEMATOCRIT: 44.8%
  HEMOGLOBIN: 14.83 G/DL
  LEUKOCYTE COUNT: 13.05 x10E3/uL
  LYMPHOCYTE: 85.27%
  MEAN CORPUSCULAR HEMOGLOBIN: 20.7 pg
  MEAN CORPUSCULAR HEMOGLOBIN CONCENTRATION: 33.13 G/DL
  MEAN CORPUSCULAR VOLUME: 62.43 fL
  MONOCYTE: 2.07%
  NEUTROPHIL: 10.57%
  PLATELET COUNT: 1282.67 x10E3/uL
  ALANINE AMINOTRANSFERASE: 66 u/L
  ALBUMIN: 3.73 G/DL
  ALKALINE PHOSPHATASE: 389.33 u/L
  ASPARTATE AMINOTRANSFERASE: 161.67 u/L
  BLOOD UREA NITROGEN: 16 mg/dL
  CARBON DIOXIDE: 40 mmol/L
  CHLORIDE: 106.67 MEQ/L
  CHOLESTEROL: 69.67 mg/dL
  CREATINE PHOSPHOKINASE: 169 u/L
  CREATININE: 0.4 mg/dL
  GLUCOSE: 172.33 mg/dL
  LACTATE DEHYDROGENASE: 94.33 u/L
  LIPASE: 11.33 u/L
  PHOSPHORUS: 10.2 mg/dL
  POTASSIUM: 6.1 MEQ/L
  SODIUM: 147.33 MEQ/L
  TOTAL BILIRUBIN: 0.3 mg/dL
  TOTAL PROTEIN: 6.03 G/DL
  URIC ACID: 0.97 mg/dL
